Holding throughout (type): cell-based
For assay [1], the system named is E. coli MG1655. Nature of the assay: MIC, 20-strain panel. To be noted: Escherichia coli, read-out: MIC. A digest of the protocol:
(§1)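 MIC read by eye as the lowest concentration without turbidity, after 16-18 h shaking incubation at 37° C. Cells: 1:10000 inoculum from growing subculture in LB. Compound in 2-fold serial dilutions, triplicate wells, DMSO vehicle control; CLSI protocol.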

Assay [2] relates to E. coli JW5503 (deltolC). Nature of the assay: MIC, 20-strain panel. To be noted: Escherichia coli. A digest of the protocol: as §1
Assay [3] has as its system Shigella flexneri. Description: MIC, 20-strain panel. A digest of the protocol:
as §1

Assay [4] deals with Staphylococcus saprophyticus subsp. saprophyticus. Nature of the assay: MIC, 20-strain panel. A digest of the protocol:
as §1

The subject of assay [5] is Streptococcus agalactiae. Nature of the assay: MIC, 20-strain panel. A digest of the protocol: as §1
The test system of assay [6] is Staphylococcus aureus subsp. aureus. Description: MIC, 20-strain panel. The conditions noted are these: read-out: MIC. The method, boiled down: as §1
Assay [7] deals with Salmonella enterica subsp. enterica typhimurium. Nature of the assay: MIC, 20-strain panel. The method, boiled down:
as §1

Assay [8] concerns Streptococcus pyogenes. Nature of the assay: MIC, 20-strain panel. A digest of the protocol:
as §1

The test system of assay [9] is Klebsiella pneumoniae subsp. pneumoniae. Nature of the assay: MIC, 20-strain panel. The method, boiled down:
as §1

Assay [10] concerns Staphylococcus epidermidis. Description: MIC, 20-strain panel. The method, boiled down:
as §1

Assay [11] has as its system Edwardsiella tarda. Nature of the assay: MIC, microdilution in 96-well plates. A digest of the protocol: as §1
(In broth dilution the organism is exposed to a series of concentrations in liquid medium.)

Assay [12] has as its system E. coli BW25113. Description: MIC, microdilution in 96-well plates. To be noted: Escherichia coli, read-out: MIC. The method, boiled down: as §1
Setting [13] is: H: Staphylococcus aureus subsp. aureus.
[14] abbreviates: F: Salmonella enterica subsp. enterica Typhimurium.
The mark [15] stands for this setting: E: Klebsiella pneumoniae subsp. pneumoniae.
Where [16] appears, read: Staphylococcus aureus subsp. aureus.
Where [17] appears, read: Salmonella enterica subsp. enterica Typhimurium.
Setting [18] is: Klebsiella pneumoniae subsp. pneumoniae.

≈ marks a conversion by molar mass, not a printed value. Read-outs that look alike come from different tables or passages of the source.

As for `O=S(=O)(N[C@@H]1CCN(Cc2ccn(-c3ccccc3)n2)C1)c1cccc(C(F)(F)F)c1` [Compound 125], the MIC in [1] (MG1655, A: E. coli MG1655) was over 8 µg/mL; in assay [2] (C: E. coli JW5503 (deltolC)) it was over 8 µg/mL; in assay [3] (G: Shigella flexneri) it was over 8 µg/mL; in assay [4] it was over 8 µg/mL; in assay [5] it was over 8 µg/mL; in assay [6] (setting [13]), over 8 µg/mL. Further, the MIC in assay [7] (setting [14]) is over 8 µg/mL; in [8], over 8 µg/mL; in assay [9] (setting [15]), over 8 µg/mL; in assay [10], over 8 µg/mL; in assay [11] (D: Edwardsiella tarda) it was over 8 µg/mL; in assay [12] (BW25113, B: E. coli BW25113) it was over 8 µg/mL.
Turning to `O=S(=O)(N[C@@H]1CCN(Cc2ccc(-n3cccn3)cc2)C1)c1cccc(C(F)(F)F)c1` [Compound 35], the MIC is over 8 µg/mL in assay [1] (MG1655, A: E. coli MG1655); 1 µg/mL (≈ 2.22 µM) in assay [2] (C: E. coli JW5503 (deltolC)); over 8 µg/mL in assay [3] (G: Shigella flexneri); over 8 µg/mL in assay [4]; over 8 µg/mL in assay [5]; over 8 µg/mL in assay [6] (setting [13]). In addition, the minimal inhibitory concentration (MIC) in assay [7] (setting [14]) was over 8 µg/mL; in assay [8], over 8 µg/mL; in assay [9] (setting [15]) it was over 8 µg/mL; in assay [10], over 8 µg/mL; in assay [11] (D: Edwardsiella tarda), over 8 µg/mL; in assay [12] (BW25113, B: E. coli BW25113) it was over 8 µg/mL.
For `O=S(=O)(N[C@@H]1CCN(Cc2ccc(-c3nccs3)cc2)C1)c1cccc(OC(F)(F)F)c1` [Compound 36], the minimal inhibitory concentration (MIC) in assay [1] (MG1655, A: E. coli MG1655) is over 8 µg/mL; in assay [2] (C: E. coli JW5503 (deltolC)), 2 µg/mL (≈ 4.14 µM); in [3] (G: Shigella flexneri), over 8 µg/mL; in assay [4], over 8 µg/mL; in assay [5] it was over 8 µg/mL; in [6] (setting [13]), over 8 µg/mL. Also, the minimum inhibitory concentration (MIC) was over 8 µg/mL in [7] (setting [14]); over 8 µg/mL in assay [8]; over 8 µg/mL in assay [9] (setting [15]); over 8 µg/mL in assay [10]; over 8 µg/mL in assay [11] (D: Edwardsiella tarda); over 8 µg/mL in assay [12] (BW25113, B: E. coli BW25113).
Turning to `O=S(=O)(N[C@@H]1CCN(Cc2ccc(-c3ccccc3)cc2)C1)c1ncc[nH]1` [Compound 16], the minimal inhibitory concentration (MIC) was over 8 µg/mL in assay [1] (MG1655, A: E. coli MG1655); 2 µg/mL (≈ 5.23 µM) in assay [2] (C: E. coli JW5503 (deltolC)); over 8 µg/mL in [3] (G: Shigella flexneri); over 8 µg/mL in [4]; over 8 µg/mL in assay [5]; over 8 µg/mL in [6] (setting [13]). For the same compound, the MIC was 8 µg/mL (≈ 20.9 µM) in assay [7] (setting [14]); over 8 µg/mL in assay [8]; over 8 µg/mL in assay [9] (setting [15]); over 8 µg/mL in [10]; over 8 µg/mL in [11] (D: Edwardsiella tarda); over 8 µg/mL in assay [12] (BW25113, B: E. coli BW25113).
With `O=S(=O)(N[C@@H]1CCN(Cc2nc(-c3ccccc3)cs2)C1)c1cccc(C(F)(F)F)c1` [Compound 173], the minimal inhibitory concentration (MIC) in [1] (MG1655, E. coli MG1655) is over 8 µg/mL; in [2] (E. coli JW5503 (deltolC)) it was over 8 µg/mL; in assay [3] it was over 8 µg/mL; in assay [4], over 8 µg/mL; in [5], over 8 µg/mL; in assay [6] (setting [16]) it was over 8 µg/mL. The minimum inhibitory concentration (MIC) in [7] (setting [17]) is over 8 µg/mL; in assay [8] it was over 8 µg/mL; in assay [9] (setting [18]), over 8 µg/mL; in assay [10], over 8 µg/mL; in [11], over 8 µg/mL; in assay [12] (BW25113, E. coli BW25113) it was over 8 µg/mL.
Turning to `Cc1ccc(C(F)(F)F)cc1S(=O)(=O)N[C@@H]1CCN(Cc2ccc(OC(C)C)cc2)C1` [Compound 183], the minimum inhibitory concentration (MIC) in assay [1] (MG1655, E. coli MG1655) is over 8 µg/mL; in assay [2] (E. coli JW5503 (deltolC)), 0.5 µg/mL (≈ 1.1 µM); in [3], over 8 µg/mL; in [4] it was over 8 µg/mL; in assay [5], over 8 µg/mL; in assay [6] (setting [16]), over 8 µg/mL. Besides, the MIC in assay [7] (setting [17]) was 8 µg/mL (≈ 17.5 µM); in [8] it was over 8 µg/mL; in [9] (setting [18]), over 8 µg/mL; in [10], over 8 µg/mL; in assay [11], over 8 µg/mL; in assay [12] (BW25113, E. coli BW25113), over 8 µg/mL.
For the compound `O=S(=O)(N[C@@H]1CCN(Cc2ccc(OC(F)F)cc2)C1)c1cccc(C(F)(F)F)c1` [Compound 87], the MIC is over 8 µg/mL in [1] (MG1655, A: E. coli MG1655); 2 µg/mL (≈ 4.44 µM) in [2] (C: E. coli JW5503 (deltolC)); over 8 µg/mL in assay [3] (G: Shigella flexneri); over 8 µg/mL in assay [4]; over 8 µg/mL in assay [5]; over 8 µg/mL in assay [6] (setting [13]). Moreover, the minimal inhibitory concentration (MIC) in [7] (setting [14]) was over 8 µg/mL; in assay [8] it was over 8 µg/mL; in [9] (setting [15]) it was over 8 µg/mL; in assay [10] it was over 8 µg/mL; in [11] (D: Edwardsiella tarda), over 8 µg/mL; in assay [12] (BW25113, B: E. coli BW25113) it was over 8 µg/mL.
Regarding `Cc1ccc(S(C)(=O)=O)cc1S(=O)(=O)N[C@@H]1CCN(Cc2ccc(OC3CC3)cc2)C1` [Compound 79], the minimal inhibitory concentration (MIC) was over 8 µg/mL in assay [1] (MG1655, A: E. coli MG1655); over 8 µg/mL in assay [2] (C: E. coli JW5503 (deltolC)); over 8 µg/mL in assay [3] (G: Shigella flexneri); over 8 µg/mL in assay [4]; over 8 µg/mL in assay [5]; over 8 µg/mL in assay [6] (setting [13]). Moreover, the MIC is over 8 µg/mL in assay [7] (setting [14]); over 8 µg/mL in assay [8]; over 8 µg/mL in assay [9] (setting [15]); over 8 µg/mL in assay [10]; over 8 µg/mL in [11] (D: Edwardsiella tarda); over 8 µg/mL in [12] (BW25113, B: E. coli BW25113).
On to `CC(C)Oc1ccc(CN2CC[C@@H](NS(=O)(=O)c3cnccc3Cl)C2)cc1` [Compound 59], for which the minimal inhibitory concentration (MIC) is over 8 µg/mL in [1] (MG1655, A: E. coli MG1655); over 8 µg/mL in [2] (C: E. coli JW5503 (deltolC)); over 8 µg/mL in [3] (G: Shigella flexneri); over 8 µg/mL in [4]; over 8 µg/mL in assay [5]; over 8 µg/mL in [6] (setting [13]). Moreover, the MIC in [7] (setting [14]) was over 8 µg/mL; in assay [8], over 8 µg/mL; in assay [9] (setting [15]), over 8 µg/mL; in [10], over 8 µg/mL; in [11] (D: Edwardsiella tarda) it was over 8 µg/mL; in [12] (BW25113, B: E. coli BW25113) it was over 8 µg/mL.
As to `CC(C)Oc1ccc(CN2CC[C@@H](NS(=O)(=O)c3ccc(Cl)c(C#N)c3)C2)cc1` [Compound 118], the minimal inhibitory concentration (MIC) in [1] (MG1655, A: E. coli MG1655) was over 8 µg/mL; in [2] (C: E. coli JW5503 (deltolC)), over 8 µg/mL; in assay [3] (G: Shigella flexneri) it was over 8 µg/mL; in [4], over 8 µg/mL; in assay [5], over 8 µg/mL; in assay [6] (setting [13]), over 8 µg/mL. Further, the MIC was over 8 µg/mL in [7] (setting [14]); over 8 µg/mL in assay [8]; over 8 µg/mL in assay [9] (setting [15]); over 8 µg/mL in assay [10]; over 8 µg/mL in assay [11] (D: Edwardsiella tarda); over 8 µg/mL in assay [12] (BW25113, B: E. coli BW25113).
As for `CC(C)Oc1ccc(CN2CC[C@@H](NS(=O)(=O)c3ccc(Cl)cn3)C2)cc1` [Compound 149], the MIC in assay [1] (MG1655, E. coli MG1655) was over 8 µg/mL; in assay [2] (E. coli JW5503 (deltolC)) it was over 8 µg/mL; in assay [3], over 8 µg/mL; in [4], over 8 µg/mL; in assay [5] it was over 8 µg/mL; in assay [6] (setting [16]) it was over 8 µg/mL. Also, the MIC in [7] (setting [17]) was over 8 µg/mL; in assay [8], over 8 µg/mL; in assay [9] (setting [18]) it was over 8 µg/mL; in [10], over 8 µg/mL; in assay [11], over 8 µg/mL; in assay [12] (BW25113, E. coli BW25113), over 8 µg/mL.
Regarding `Cc1ccc(C(F)(F)F)cc1S(=O)(=O)N[C@@H]1CCN(Cc2ccc(-c3ccccc3)cc2)C1` [Compound 182], the MIC in assay [1] (MG1655, A: E. coli MG1655) is over 8 µg/mL; in [2] (C: E. coli JW5503 (deltolC)), 4 µg/mL (≈ 8.43 µM); in assay [3] (G: Shigella flexneri), over 8 µg/mL; in assay [4], over 8 µg/mL; in [5], over 8 µg/mL; in assay [6] (setting [13]), over 8 µg/mL. In addition, the minimum inhibitory concentration (MIC) in assay [7] (setting [14]) is over 8 µg/mL; in assay [8] it was about 8 µg/mL (≈ 16.9 µM); in [9] (setting [15]) it was over 8 µg/mL; in assay [10] it was 4 µg/mL (≈ 8.43 µM); in assay [11] (D: Edwardsiella tarda), over 8 µg/mL; in assay [12] (BW25113, B: E. coli BW25113), over 8 µg/mL.
Consider `CC(=O)c1cccc(S(=O)(=O)N[C@@H]2CCN(Cc3ccc(OC(C)C)cc3)C2)c1` [Compound 49], for which the MIC in [1] (MG1655, A: E. coli MG1655) is over 8 µg/mL; in assay [2] (C: E. coli JW5503 (deltolC)), 2 µg/mL (≈ 4.8 µM); in assay [3] (G: Shigella flexneri) it was over 8 µg/mL; in assay [4], over 8 µg/mL; in assay [5], over 8 µg/mL; in assay [6] (setting [13]), over 8 µg/mL. Moreover, the minimum inhibitory concentration (MIC) in [7] (setting [14]) is over 8 µg/mL; in assay [8], over 8 µg/mL; in assay [9] (setting [15]) it was over 8 µg/mL; in assay [10], over 8 µg/mL; in assay [11] (D: Edwardsiella tarda) it was over 8 µg/mL; in assay [12] (BW25113, B: E. coli BW25113), over 8 µg/mL.

Broadly, the MIC is the lowest concentration found to suppress growth.

(Values after patent publication US10253039B2, “Inhibitors of bacterial DNA gyrase with efficacy against gram-negative bacteria” (priority 2014, dated 2019).)
